The results in this text go back to ChEMBL document CHEMBL1201862, “PubChem BioAssay data set” (2004).

Some test systems named below: CAKI-1; DU-145; EKVX; HCT-116; HCT-15; HOP-62; HT-29; Hs-578T; K562; LOX IMVI; MDA-N; Malme-3M; NCI-H460; RPMI-8226; SF-268; SF-295; SK-MEL-5; SN12C; UACC-62; HL-60.
Holding throughout (test): NCI anticancer screen, dose series, 48 h

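Protocol summary: plate cells (96-well), add compound at 5 concentrations, incubate 48 h, interpolate endpoints linearly. At the GI50, growth is halved.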 Active and inactive are the calls of the source. Cut-off read from the data, not from the text of the source: active = GI50 up to about 1.1 µM and inactive = higher.

As for `OC(C1CCC=NN1C(O)(C(F)(F)F)C(F)(F)F)(C(F)(F)F)C(F)(F)F` (centres undefined), the GI50 is > 10 µM (inactive) in the test with CAKI-1; > 10 µM (inactive) with DU-145; > 10 µM (inactive) with EKVX; > 10 µM (inactive) in the test on HCT-116; above 10 µM in the test with HCT-15; > 10 µM (inactive) in the test on HOP-62. Further, the GI50 in the test with HT-29, with Hs-578T, in the test on K562, in the test on LOX IMVI, with MDA-N and in the test with Malme-3M was > 10 µM (inactive) throughout. The GI50 in the test on NCI-H460, with RPMI-8226, with SF-268, in the test on SF-295, with SK-MEL-5 and with SN12C was > 10 µM (inactive) in each case. Also, in the test with UACC-62, the GI50 was > 10 µM (inactive).
For the compound `O=C1Nc2ccc(S(=O)(=O)NCCO)cc2/C1=C1/Nc2ccccc2C1=O`, the GI50 is > 100 µM (inactive) in the test on CAKI-1; 8 µM (inactive) in the test with DU-145; 7.69 µM (inactive) with EKVX; 3.13 µM (inactive) in the test on HCT-116; 13.3 µM in the test with HCT-15; 16.2 µM (inactive) in the test on HOP-62. Moreover, the GI50 with HT-29 was > 100 µM (inactive); in the test with Hs-578T, 6.73 µM (inactive); with K562, 4.28 µM (inactive); in the test with LOX IMVI, 42 µM (inactive); in the test with MDA-N, > 100 µM (inactive); in the test on Malme-3M it was 40.8 µM (inactive). In addition, the GI50 is 30.3 µM (inactive) with NCI-H460; 92.5 µM (inactive) in the test on RPMI-8226; 9.59 µM (inactive) in the test on SF-268; 42 µM (inactive) with SF-295; 12.7 µM (inactive) in the test on SK-MEL-5; 67.5 µM (inactive) in the test on SN12C. Besides, in the test with UACC-62, the GI50 was 7.18 µM (inactive).
On to `CN(C)CC(CN(C)C)c1ccccn1`, for which the GI50 in the test with CAKI-1 was > 100 µM (inactive); in the test with EKVX, > 100 µM (inactive); with HCT-116, > 100 µM (inactive); in the test with HCT-15 it was above 100 µM; in the test with HL-60, > 100 µM (inactive); in the test with HOP-62 it was > 100 µM (inactive). Also, the GI50 in the test with HT-29, in the test on Hs-578T, in the test with K562, with LOX IMVI, in the test with MDA-N and in the test on Malme-3M was > 100 µM (inactive) throughout. For the same compound, the GI50 in the test with NCI-H460, in the test with RPMI-8226, in the test on SF-268, in the test on SF-295, with SK-MEL-5 and with SN12C was > 100 µM (inactive) in each case. For the same compound, the GI50 with UACC-62 was > 100 µM (inactive).
In the case of `Cc1n[nH]c(=S)n1/N=C/c1ccc(-c2ccc(Cl)cc2)o1`, the GI50 with CAKI-1 is > 100 µM (inactive); with DU-145, > 100 µM (inactive); in the test with EKVX it was 61.9 µM (inactive); in the test with HCT-116 it was > 100 µM (inactive); in the test with HCT-15, above 100 µM; in the test on HL-60, 44.2 µM (inactive). The GI50 is 49.7 µM (inactive) in the test with HOP-62; > 100 µM (inactive) in the test with HT-29; 37.5 µM (inactive) in the test with Hs-578T; > 100 µM (inactive) in the test on K562; > 100 µM (inactive) in the test on LOX IMVI; > 100 µM (inactive) with MDA-N. The GI50 in the test with NCI-H460 is > 100 µM (inactive); with RPMI-8226, > 100 µM (inactive); in the test with SF-268, 29.2 µM (inactive); with SF-295, 67.8 µM (inactive); in the test on SK-MEL-5, > 100 µM (inactive).
Consider `CCOC(=O)c1cc(C2CCN(Cc3ccccc3)C2=O)c(C(=O)/C=C(/C)N)[nH]1` (centres undefined), for which the GI50 in the test on CAKI-1 is > 100 µM (inactive); in the test with DU-145 it was > 100 µM (inactive); in the test with EKVX it was > 100 µM (inactive); with HCT-116 it was 90.6 µM (inactive); in the test on HCT-15, above 100 µM; with HOP-62, 30.5 µM (inactive). Further, the GI50 is > 100 µM (inactive) with HT-29; 98.4 µM (inactive) in the test on Hs-578T; > 100 µM (inactive) in the test with K562; > 100 µM (inactive) with MDA-N; > 100 µM (inactive) with Malme-3M; 85.5 µM (inactive) in the test on NCI-H460. For the same compound, the GI50 was > 100 µM (inactive) in the test with RPMI-8226; > 100 µM (inactive) with SF-268; 46.3 µM (inactive) with SF-295; > 100 µM (inactive) in the test with SK-MEL-5; > 100 µM (inactive) with UACC-62.
For `COCC1OC(S(=O)(=O)c2ccccc2)C(O)C(OC)C1OC` (centres undefined), the GI50 in the test with CAKI-1 was > 100 µM (inactive); in the test on DU-145 it was > 100 µM (inactive); in the test on EKVX it was > 100 µM (inactive); in the test on HCT-116, > 100 µM (inactive); in the test on HCT-15, above 100 µM; with HL-60, > 100 µM (inactive). Further, the GI50 with HOP-62, in the test with HT-29, with Hs-578T, in the test on K562, in the test on LOX IMVI and in the test with MDA-N was > 100 µM (inactive) throughout. For the same compound, the GI50 in the test with Malme-3M, in the test on NCI-H460, in the test on SF-268, with SF-295, with SK-MEL-5 and in the test with SN12C was > 100 µM (inactive) throughout. Besides, the GI50 with UACC-62 is > 100 µM (inactive).
As for `O=C1CSC(c2cccc(Oc3ccccc3)c2)N1c1ccc(Cl)cc1` (centres undefined), the GI50 with CAKI-1 is 17.9 µM (inactive); in the test on DU-145, 52.2 µM (inactive); in the test with EKVX, 20.7 µM (inactive); in the test on HCT-116, 13.6 µM (inactive); with HCT-15 it was 26.4 µM; in the test with HL-60 it was 24.9 µM (inactive). The GI50 was 57 µM (inactive) with HOP-62; 37.8 µM (inactive) in the test on HT-29; 32.9 µM (inactive) in the test on Hs-578T; 15.7 µM (inactive) in the test on K562; 18 µM (inactive) in the test on LOX IMVI; 19.4 µM (inactive) in the test on MDA-N. Also, the GI50 in the test with Malme-3M is 20.4 µM (inactive); in the test with NCI-H460 it was 17.1 µM (inactive); with SF-268, 30.3 µM (inactive); in the test with SF-295, 31 µM (inactive); in the test on SK-MEL-5 it was 11.9 µM (inactive); in the test with SN12C, 41.3 µM (inactive). Moreover, the GI50 in the test with UACC-62 is 10.8 µM (inactive).
As to `C/C(=N\NC(=O)c1ccccc1O)c1cccc(/C(C)=N/NC(=O)c2ccccc2O)n1`, the GI50 in the test with DU-145 was 13.3 µM (inactive); in the test with EKVX it was 13.8 µM (inactive); with HCT-15 it was 7.55 µM; in the test with HOP-62, 5.05 µM (inactive); with HT-29, 8.61 µM (inactive); in the test on Hs-578T, > 65.2 µM (inactive). The GI50 in the test on K562 is 15 µM (inactive); in the test on LOX IMVI it was 1.7 µM (inactive); in the test on MDA-N, > 57 µM (inactive); in the test on Malme-3M, 10.6 µM (inactive); in the test on NCI-H460, 6.71 µM (inactive); in the test on RPMI-8226, 14.7 µM (inactive). The GI50 is 3.41 µM (inactive) in the test on SF-268; 12.5 µM (inactive) with SF-295; 6.97 µM (inactive) in the test on SK-MEL-5; 6.07 µM (inactive) in the test on SN12C; 2.58 µM (inactive) in the test on UACC-62.
With `O=C1C(Cl)=C(N2CCOCC2)C(=O)c2c(O)ccc(O)c21`, the GI50 is 0.433 µM (active) in the test with CAKI-1; 1.53 µM (inactive) with DU-145; 1.46 µM (inactive) in the test with EKVX; 0.213 µM (active) with HCT-116; 0.155 µM in the test on HCT-15; 0.853 µM (active) in the test with HOP-62. Further, the GI50 with HT-29 is 0.233 µM (active); in the test on Hs-578T, 0.859 µM (active); with K562, 10 µM (inactive); in the test on LOX IMVI, 0.186 µM (active); in the test on MDA-N, 0.176 µM (active); in the test with Malme-3M, 0.223 µM (active). The GI50 was 0.881 µM (active) in the test on NCI-H460; 1.84 µM (inactive) in the test with RPMI-8226; 1.36 µM (inactive) in the test on SF-268; 1.64 µM (inactive) with SF-295; 0.316 µM (active) in the test with SK-MEL-5; 0.207 µM (active) in the test on SN12C. Also, in the test on UACC-62, the GI50 was 0.729 µM (active).
Turning to `C/C=C\C(CC(=O)NCCC1CN(S(=O)(=O)C(F)(F)F)c2ccccc21)CC(=O)OC` (centres undefined), the GI50 in the test with CAKI-1 is 56.6 µM (inactive); in the test on DU-145, > 100 µM (inactive); with EKVX it was 37.4 µM (inactive); in the test on HCT-116, 31.3 µM (inactive); with HCT-15 it was 42.8 µM; with HOP-62, 35.2 µM (inactive). For the same compound, the GI50 in the test with HT-29 was 21.8 µM (inactive); in the test with Hs-578T, 22.6 µM (inactive); in the test on K562, 51.8 µM (inactive); in the test on MDA-N it was 40 µM (inactive); in the test on Malme-3M, 15.9 µM (inactive); in the test with NCI-H460 it was 35.6 µM (inactive). Further, the GI50 in the test with RPMI-8226 was 31.8 µM (inactive); in the test with SF-295, 42.4 µM (inactive); in the test with SK-MEL-5, 16.9 µM (inactive); with UACC-62, 34.1 µM (inactive).
For `O=C(CCc1cc(O)cc(O)c1)NCCc1cc(O)cc(O)c1`, the GI50 in the test on CAKI-1 is > 100 µM (inactive); in the test on DU-145 it was > 100 µM (inactive); in the test on EKVX, > 100 µM (inactive); with HCT-116, > 100 µM (inactive); with HCT-15 it was above 100 µM; in the test on HOP-62, > 100 µM (inactive). Moreover, the GI50 in the test on HT-29, with Hs-578T, in the test with K562, in the test with LOX IMVI, with MDA-N and in the test with NCI-H460 was > 100 µM (inactive) each time. For the same compound, the GI50 in the test on RPMI-8226, in the test with SF-268, in the test with SF-295, in the test on SK-MEL-5, in the test on SN12C and in the test with UACC-62 was > 100 µM (inactive) each time.
